Results from PubChem BioAssay (NCI).
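Assay format: 96-well plates, 48-hour exposure. TGI: concentration producing complete growth inhibition.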

Assays:
Assay in all cases: growth of human tumour cells (NCI), 48 h
[1] = tested on: EKVX NSCLC
[2] = tested on: MOLT-4 leukemia
[3] = tested on: MDA-MB-231 breast
[4] = tested on: SNB-75 CNS
[5] = tested on: HS 578T breast
[6] = tested on: IGROV1 ovarian
[7] = tested on: MCF7 breast
[8] = tested on: ACHN renal
[9] = tested on: SR leukemia
[10] = tested on: HCC-2998 colon
[11] = tested on: OVCAR-8 ovarian
[12] = tested on: HCT-116 colon
[13] = tested on: SN12C renal
[14] = tested on: NCI-H460 lung
[15] = tested on: NCI-H522 lung
[16] = tested on: PC-3 prostate
[17] = tested on: SF-539 CNS
[18] = tested on: HOP-92 NSCLC
[19] = tested on: HT29 colon
[20] = tested on: BT-549 breast
[21] = tested on: NCI-H23 lung
[22] = tested on: HCT-15 colon
[23] = tested on: SW-620 colon
[24] = tested on: 786-0 renal
[25] = tested on: SF-268 CNS
[26] = tested on: OVCAR-5 ovarian
[27] = tested on: SK-MEL-28 melanoma
[28] = tested on: SF-295 CNS
[29] = tested on: HL-60(TB) leukemia
[30] = tested on: UACC-257 melanoma
[31] = tested on: CCRF-CEM leukemia
[32] = tested on: KM12 colon
[33] = tested on: K-562 leukemia
[34] = tested on: RPMI-8226 leukemia
[35] = tested on: OVCAR-3 ovarian
[36] = tested on: DU-145 prostate
[37] = tested on: SNB-19 CNS
[38] = tested on: MDA-N
[39] = tested on: HOP-62 NSCLC
[40] = tested on: OVCAR-4 ovarian
[41] = tested on: A498 renal
[42] = tested on: M14 melanoma
[43] = tested on: SK-MEL-5 melanoma
[44] = tested on: SK-MEL-2 melanoma
[45] = tested on: RXF 393 renal
[46] = tested on: NCI-H226 lung
[47] = tested on: A549 NSCLC
[48] = tested on: UO-31 renal
[49] = tested on: TK-10 renal
[50] = tested on: CAKI-1 renal
[51] = tested on: MALME-3M melanoma
[52] = tested on: U251 CNS

Measured: TGI

O=C(O)c1ccc(C2SCc3nc4ccccc4n32)cc1 (configuration not stated)
> 100 µM: all assays above
